Test results from patent publication US12495798B2, “Nicotinamide compound and herbicidal composition comprising compound” (KOREA RESEARCH INSTITUTE OF CHEMICAL TECHNOLOGY, priority 2019, dated 2025).

Tests used:
Assay type in all cases: in vivo
[1] = system: sorghum; experiment: Herbicidal activity test against upland field weeds (foliar treatment test); settings: scale 0-100; for plant injury at 75 g/ha: Sorghum, 75 g ai/ha
Method in brief: (§1)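 Weeds were raised from seed or rootstocks in horticultural soil in a greenhouse (30±5° C., 14/10 h light/dark), then foliage was hand-sprayed with compound at 50 or 75 g a.i./ha in 50% acetone with 0.1% Tween-20. Control was scored visually 0–100 against untreated plants after 14 days, or 21 if needed.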

[2] = system: barnyard grass; experiment: as above; set-up: key to Foliar treatment herbicidal activity, barnyard grass: 0 (no control); 100 (complete control); settings: scale 0-100; for pest or weed control at 75 g/ha: Echinochloa crus-galli, 75 g ai/ha
Method in brief: as §1

[3] = system: quack grass; experiment: as above; set-up: key to Foliar treatment herbicidal activity, quack grass: 0 (no control); 100 (complete control); settings: scale 0-100
Method in brief: as §1

[4] = system: crabgrass; experiment: as above; settings: scale 0-100; for pest or weed control at 75 g/ha: Digitaria sanguinalis, 75 g ai/ha
Method in brief: as §1

[5] = system: fall panicum; experiment: as above; settings: scale 0-100; for pest or weed control at 75 g/ha: Panicum dichotomiflorum, 75 g ai/ha
Method in brief: as §1

[6] = system: black nightshade; experiment: as above; set-up: key to Foliar treatment herbicidal activity, black nightshade: 0 (no control); 100 (complete control); settings: scale 0-100
Method in brief: as §1

[7] = system: indian jointvetch; experiment: as above; settings: scale 0-100; for pest or weed control at 75 g/ha: 75 g ai/ha
Method in brief: as §1

[8] = system: velvetleaf; experiment: as above; set-up: key to Foliar treatment herbicidal activity, velvet leaf: 0 (no control); 100 (complete control); settings: for Foliar treatment herbicidal activity, velvet leaf: scale 0-100; for pest or weed control at 75 g/ha: Abutilon theophrasti, scale 0-100, read-out: Foliar treatment herbicidal activity, velvet leaf
Method in brief: as §1

[9] = system: cocklebur; experiment: as above; set-up: key to Foliar treatment herbicidal activity, Cocklebur: 0 (no control); 100 (complete control); settings: scale 0-100; for pest or weed control at 75 g/ha: Xanthium strumarium, 75 g ai/ha
Method in brief: as §1

[10] = system: bindweed; experiment: as above; settings: scale 0-100; for pest or weed control at 75 g/ha: 75 g ai/ha
Method in brief: as §1

[11] = system: sorghum; experiment: Herbicidal activity test against upland field weeds (soil treatment test); set-up: key to Soil treatment herbicidal activity, Sorghum: 0 (no control); 100 (complete control); settings: scale 0 (no control) to 100 (complete control); for plant injury at 75 g/ha: Sorghum
Method in brief: (§2)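 Pre-emergence test: seeds or rootstocks were sown in fertilized sandy loam, and the next day the soil surface was sprayed with compound at 50 or 75 g a.i./ha in 50% acetone/0.1% Tween-20. Plants were grown in a greenhouse (30±5 °C, 14/10 h light/dark), then visually scored 0–100 against untreated at 14 d (21 d if needed).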

[12] = system: barnyard grass; experiment: as above; set-up: key to Soil treatment herbicidal activity, barnyard grass: 0 (no control); 100 (complete control); settings: scale 0 (no control) to 100 (complete control)
Method in brief: as §2

[13] = system: quack grass; experiment: as above; set-up: key to Soil treatment herbicidal activity, quack grass: 0 (no control); 100 (complete control); settings: scale 0 (no control) to 100 (complete control)
Method in brief: as §2

[14] = system: crabgrass; experiment: as above; set-up: key to Soil treatment herbicidal activity, Crabgrass: 0 (no control); 100 (complete control); settings: scale 0 (no control) to 100 (complete control)
Method in brief: as §2

[15] = system: fall panicum; experiment: as above; set-up: key to Soil treatment herbicidal activity, Fall panicum: 0 (no control); 100 (complete control); settings: scale 0 (no control) to 100 (complete control)
Method in brief: as §2

[16] = system: black nightshade; experiment: as above; set-up: key to Soil treatment herbicidal activity, black nightshade: 0 (no control); 100 (complete control); settings: scale 0 (no control) to 100 (complete control)
Method in brief: as §2

[17] = system: indian jointvetch; experiment: as above; set-up: key to Soil treatment herbicidal activity, Indian jointvetch: 0 (no control); 100 (complete control); settings: scale 0 (no control) to 100 (complete control)
Method in brief: as §2

[18] = system: velvetleaf; experiment: as above; set-up: key to Soil treatment herbicidal activity, velvet leaf: 0 (no control); 100 (complete control); settings: scale 0 (no control) to 100 (complete control)
Method in brief: as §2

[19] = system: cocklebur; experiment: as above; set-up: key to Soil treatment herbicidal activity, Cocklebur: 0 (no control); 100 (complete control); settings: scale 0 (no control) to 100 (complete control)
Experimental: Experimental Example 2: Herbicidal Activity Test Against Upland Field Weeds (Soil Treatment Test) Soil treatment was performed as follows: After filling a square plastic pot having a surface area of 350 cm^2 with sandy loam mixed with 1 g per pot (350 cm^2) of horticultural mixed fertilizer (N:P:K=11:10:11), seeds (10˜15 grains) or rootstocks (2 pieces) of 5 kinds of grassy weeds of sorghum, barnyard grass, quack grass, crabgrass, fall panicum, and 5 kinds of broadleaf weeds of black nightshade, indian jointvetch, velvetleaf, cocklebur, bindweed, which had been stored in a low temperature (6° C.), were sown. The day after sowing, test compound solutions were made by diluting with a preparation solution (including 50% acetone, 0.1% Tween-20) so that the final treatment amount of the test compounds was 50 or 75 g a.i./ha. The prepared test compound solution was used for treating soil surface by hand-spraying 14 mL per pot in a fume hood. After the treatment, it was managed under the same greenhouse conditions (average temperature 30±5° C., light/dark=14/10 hours), and after 14 days (after 21 days if necessary), the external symptoms and efficacy were investigated according to the scale of 0 (no control) to 100 (complete control). The results of Table 8 were obtained by evaluating weed control value to the untreated control by conducting visual assessment.

[20] = system: bindweed; experiment: as above; set-up: key to Soil treatment herbicidal activity, Bindweed: 0 (no control); 100 (complete control); settings: scale 0 (no control) to 100 (complete control)
Method in brief: as §2

Structure (SMILES)	plant injury at 75 g/ha [1] [%]	pest or weed control at 75 g/ha [2] [%]	Foliar treatment herbicidal activity, quack grass ([3]; 75 g ai/ha)	pest or weed control at 75 g/ha [4] [%]	pest or weed control at 75 g/ha [5] [%]	pest or weed control at 75 g/ha [7] [%]	pest or weed control at 75 g/ha ([8]; 75 g ai/ha) [%]	pest or weed control at 75 g/ha [9] [%]	pest or weed control at 75 g/ha [10] [%]	Soil treatment herbicidal activity, quack grass ([13]; 75 g ai/ha)	Soil treatment herbicidal activity, Cocklebur ([19]; 75 g ai/ha)	Foliar treatment herbicidal activity, black nightshade ([6]; 75 g ai/ha)	plant injury at 75 g/ha ([11]; 75 g ai/ha) [%]	Soil treatment herbicidal activity, barnyard grass ([12]; 75 g ai/ha)	Soil treatment herbicidal activity, Fall panicum ([15]; 75 g ai/ha)	Soil treatment herbicidal activity, black nightshade ([16]; 75 g ai/ha)	Soil treatment herbicidal activity, Indian jointvetch ([17]; 75 g ai/ha)	Soil treatment herbicidal activity, velvet leaf ([18]; 75 g ai/ha)	pest or weed control at 75 g/ha ([20]; 75 g ai/ha) [%]	further results
Cn1nnc(C[S+]([O-])Cc2nc(C(F)F)ccc2C(=O)Nc2nnnn2C)n1 (stereo not drawn) [Compound No. 2-111, 6-(difluoromethyl)-N-(1-methyl-1H-tetrazol-1-yl)-2-((((2-methyl-2H-tetrazol-5-yl)methyl)sulfinyl)methyl)nicotinamide]																				Foliar treatment herbicidal activity, Sorghum ([1]; 50 g ai/ha): 70; Foliar treatment herbicidal activity, barnyard grass ([2]; 50 g ai/ha): 100; Foliar treatment herbicidal activity, quack grass ([3]; 50 g ai/ha): 0; Foliar treatment herbicidal activity, Crabgrass ([4]; 50 g ai/ha): 98; Foliar treatment herbicidal activity, Fall panicum ([5]; 50 g ai/ha): 95; Foliar treatment herbicidal activity, black nightshade ([6]; 50 g ai/ha): 100; Foliar treatment herbicidal activity, Indian jointvetch ([7]; 50 g ai/ha): 95; Foliar treatment herbicidal activity, velvet leaf ([8]; 50 g ai/ha): 80; Foliar treatment herbicidal activity, Cocklebur ([9]; 50 g ai/ha): 100; Foliar treatment herbicidal activity, Bindweed ([10]; 50 g ai/ha): 98; Soil treatment herbicidal activity, Sorghum ([11]; 50 g ai/ha): 0; Soil treatment herbicidal activity, barnyard grass ([12]; 50 g ai/ha): 0; Soil treatment herbicidal activity, quack grass ([13]; 50 g ai/ha): 0; Soil treatment herbicidal activity, Crabgrass ([14]; 50 g ai/ha): 0; Soil treatment herbicidal activity, Fall panicum ([15]; 50 g ai/ha): 0; Soil treatment herbicidal activity, black nightshade ([16]; 50 g ai/ha): 90; Soil treatment herbicidal activity, Indian jointvetch ([17]; 50 g ai/ha): 0; Soil treatment herbicidal activity, velvet leaf ([18]; 50 g ai/ha): 0; Soil treatment herbicidal activity, Cocklebur ([19]; 50 g ai/ha): 0; Soil treatment herbicidal activity, Bindweed ([20]; 50 g ai/ha): 0
CN(CCOCc1nnn(C)n1)c1nc(C(F)(F)F)ccc1C(=O)Nc1nnnn1C [Compound No. 2-34, 2-(methyl(2-((2-methyl-2H-tetrazol-5-yl)methoxy)ethyl)amino)-N-(1-methyl-1H-tetrazol-5-yl)-6-(trifluoromethyl)nicotinamide]	20	70	0	60	40	60	50	40	50	0	0									pest or weed control at 75 g/ha ([6]; Solanum nigrum, 75 g ai/ha): 95%; Soil treatment herbicidal activity, Sorghum ([11]; 75 g ai/ha): 0; pest or weed control at 75 g/ha ([12]; Echinochloa crus-galli, 75 g ai/ha): 60%; pest or weed control at 75 g/ha ([14]; Digitaria sanguinalis, 75 g ai/ha): 70%; pest or weed control at 75 g/ha ([15]; Panicum dichotomiflorum, 75 g ai/ha): 80%; pest or weed control at 75 g/ha ([16]; Solanum nigrum, 75 g ai/ha): 95%; pest or weed control at 75 g/ha ([17]; 75 g ai/ha): 70%; pest or weed control at 75 g/ha ([18]; Abutilon theophrasti, 75 g ai/ha, read-out: Soil treatment herbicidal activity, velvet leaf): 60%; Soil treatment herbicidal activity, Bindweed ([20]; 75 g ai/ha): 0
CCN(Cc1nnn(C)n1)c1nc(C(F)(F)F)ccc1C(=O)Nc1nnnn1C [Compound No. 2-27, 2-(ethyl((2-methyl-2H-tetrazol-5-yl)methyl)amino)-N-(1-methyl-1H-tetrazol-5-yl)-6-(trifluoromethyl)nicotinamide]	40	80	0	20	70	70		98	40	0	100	100	50	100	100	100	100	100	98	Foliar treatment herbicidal activity, velvet leaf ([8]; 75 g ai/ha): 100
CN(Cc1ncn(C)n1)c1nc(C(F)(F)F)ccc1C(=O)Nc1nnnn1C [Compound No. 2-35, 2-(methyl((1-methyl-1H-1,2,4-triazol-3-yl)methyl)amino)-N-(1-methyl-1H-tetrazol-5-yl)-6-(trifluoromethyl)nicotinamide]	70	80	0	70	80	80	90	90	70	0		100	90	100	100	100	100	100	70	pest or weed control at 75 g/ha ([19]; Xanthium strumarium, 75 g ai/ha): 95%
